Reference: US3950346A, “Novel process for producing 2-ketoethylbenzomorphan derivatives and salts thereof” (Sumitomo Chemical Company, Limited, priority 1972, dated 1976)
Read-outs that look alike come from different tables or passages of the source.

What was measured:
[1] = Physical dependency test: abstinence syndrome (body weight decrease on the day after drug withdrawal following 4 weeks of administration); type: in vivo, rats (male, Wistar strain); design: key to Abstinence syndrome: +++: severe decrease (about 5% decrease); ++: moderate decrease; +: mild decrease; -: no decrease; conditions: for Abstinence syndrome: 20 mg/kg/day, subcutaneously twice a day for 4 weeks, body weight decrease on next day after withdrawal, male Wistar rats; for addiction in long term animal tests / physical dependency: result in words; for physical dependency: orally or subcutaneously to rats everyday for 4 weeks
Protocol: Known 6,7-benzomorphan derivatives such as 2'-hydroxy-2,5,9-trimethyl-6,7-benzomorphan [cf. […] On account of this addiction liability, these analgesics are severely restricted in a therapeutic use.
Note: Groups of male rats of Wistar strain (body weight, 150 g at the beginning of the test), each group consisting of 20 male rats, were subcutaneously given the test compound twice a day for 4 consecutive weeks. On the next day after drug withdrawal, the body weight was measured. The symbols have the following meanings: +++, severe decrease (about 5% decrease); ++, moderate decrease; +, mild decrease; -, no decrease.

[2] = Subcutaneous writhing test (antagonism of the syndrome produced by intraperitoneal 0.6% aqueous acetic acid); type: in vivo; conditions: mice, 20 minutes before acetic acid, Litchfield-Wilcoxon's method
Protocol: […]. Note: The test was based on the specific antagonism of the test compound to the typical syndrome produced by intraperitoneal injection of 0.6% aqueous acetic acid. The syndrome was characterized by intermittent contractions of the abdomen, twisting and turning of the trunk and extension of the hind legs. A group of 5 mice was used for each dose level. The test compound was administered subcutaneously 20 minutes before the injection of acetic acid. […] The ED50 value was calculated according to the Litchfield-Wilcoxon's method.

[3] = known, cf. U.S. Pat. No. 3,138,603; result in words; cited from earlier work
[4] = known, cf. U.S. Pat. No. 3,138,603; result in words; cited from earlier work; remark: listed apart in the source
[5] = Mus musculus, sc, read-out: ED50

Molecule | Abstinence syndrome [1] | addiction in long term animal tests [1] | physical dependency [1] | ED50 [2] | ED50 [2, 5] | addiction liability [3] | analgesic activity [4]
2'-Hydroxy-2-(β-ethylcarbonylethyl)-5,9-dimethyl-6,7-benzomorphan | - | do not show any addiction | did not produce any physical dependency | 7.0 mg/kg |  |  | 
CCOC(=O)CCN1CCC2(C)c3cc(O)ccc3CC1C2C (stereo not drawn) [2'-Hydroxy-2-(β-ethoxycarbonylethyl)-5,9-dimethyl-6,7-benzomorphan] | - | do not show any addiction | did not produce any physical dependency |  | 16.1 mg/kg |  | 
CC1C2Cc3ccc(O)cc3C1(C)CCN2C (stereo not drawn) [2'-hydroxy-2,5,9-trimethyl-6,7-benzomorphan] | ++ |  |  |  |  | show an addiction liability | potent analgesic activity
CC(C)=CCN1CCC2(C)c3cc(O)ccc3CC1C2C (stereo not drawn) [Pentazocine, 2'-hydroxy-2-(3"-methyl-2"-butenyl)-5,9-dimethyl-6,7-benzomorphan, reference compound] |  |  |  |  | 17.5 mg/kg |  | 
